Data on 23 molecules can be found in patent publication US20250154173A1 (Merck Sharp & Dohme LLC, priority 2023, published 2025).

The assay deals with T1, GST-RIPK1 (recombinant GST-RIPK1 kinase domain (residues 1-327)) (Homo sapiens, UniProt Q13546).
T1 construct: recombinant GST-RIPK1 kinase domain (residues 1-327) enzyme produced from baculovirus-transfected Sf21 cells; host or cells: baculovirus-transfected Sf21 insect cells
T1 sequence (Q13546 1-327): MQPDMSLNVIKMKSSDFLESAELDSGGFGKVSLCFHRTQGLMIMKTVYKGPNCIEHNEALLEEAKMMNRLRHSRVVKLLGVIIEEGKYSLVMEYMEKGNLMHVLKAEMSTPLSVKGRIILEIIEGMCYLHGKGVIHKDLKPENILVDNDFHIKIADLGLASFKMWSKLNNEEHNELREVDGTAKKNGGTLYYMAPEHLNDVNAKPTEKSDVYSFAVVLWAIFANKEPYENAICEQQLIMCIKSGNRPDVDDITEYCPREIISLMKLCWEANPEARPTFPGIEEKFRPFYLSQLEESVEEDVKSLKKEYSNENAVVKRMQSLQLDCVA
The experiment in a line: RIPK1-ADP-Glo Enzymatic Assay. The settings on record: ten-point titration, top compound concentration of 100000 nM; 25 nM GST-RIPK1, 300 μM ATP, 3 μM dephosphorylated-MBP; 30 min pre-incubation, 150 min reaction. In kind it is biochemical. On the procedure: RIPK1-ADP-Glo Enzymatic Assay
The enzymatic activity of RIPK1 is measured using an assay derived from ADP-Glo kit (TMPromega), which provides a luminescent-based ADP detection system. Specifically, the ADP generated by RIPK1 kinase is proportionally detected as luminescent signals in a homogenous fashion. In this context, the assessment of the inhibitory effect of small molecules (EC50) is measured by the effectiveness of the compounds to inhibit the ATP to ADP conversion by RIPK1.
In this assay, the potency (EC50) of each compound was determined from a ten-point (1:3 serial dilution; top compound concentration of 100000 nM) titration curve using the following outlined procedure. To each well of a white ProxiPlus 384 well-plate, 30 nL of compound (1% DMSO in final assay volume of 3 μL) was dispensed, followed by the addition of 2 μL of 1× assay buffer (25 mM Hepes 7.3, 20 mM MgCl2, 50 mM NaCl, 1 mM DTT, 0.005% Tween20, and 0.02% BSA) containing 37.5 nM of GST-RIPK1 (recombinant GST-RIPK1 kinase domain (residues 1-327) enzyme produced from baculovirus-transfected Sf21 cells: MW=62 kDa). Plates were placed in an ambient temperature humidified chamber for a 30 minutes pre-incubation with compound. Subsequently, each reaction was initiated by the addition of 1 μL 1× assay buffer containing 900 μM ATP and 3 μM dephosphorylated-MBP substrate. The final reaction in each well of 3 μL consists of 25 nM of GST-RIPK1, 300 μM ATP, and 3 μM dephosphorylated-MBP. Kinase reactions were allowed to proceed for 150 minutes prior to adding ADP-Glo reagents per Promega's outlined kit protocol. Dose-response curves were generated by plotting percent effect (% product conversion; Y-axis) vs. Log 10 compound concentrations (X-axis). EC50 values were calculated using a non-linear regression, four-parameters sigmoidal dose-response model.
(ADP-Glo first removes unused ATP, then detects ADP through luciferase.)

The term EC50 denotes the midpoint of the concentration-response curve. With `O=C1N2C(CC[C@H]2c2cnccn2)OC12CC(OCc1ccc(C(F)F)cn1)C2` (stereo partly drawn) [Example 18.63, (5′S)-3-{[5-(difluoromethyl)pyridin-2-yl]methoxy}-5′-(pyrazin-2-yl)tetrahydro-3′H-spiro[cyclobutane-1,2′-pyrrolo[2,1-b][1,3]oxazol]-3′-one], the EC50 worked out at 354 nM.

`N#Cc1cncc(O[C@H]2C[C@@]3(C2)O[C@@H]2CC[C@@H](c4ccc(F)cc4)N2C3=O)c1` [Example 9.49, 5-{[(1r,3R,5′S,7a′R)-5′-(4-fluorophenyl)-3′-oxotetrahydro-3′H-spiro[cyclobutane-1,2′-pyrrolo[2,1-b][1,3]oxazol]-3-yl]oxy}pyridine-3-carbonitrile]: the EC50 was determined as 15 nM.

For the molecule `N#CCc1cccc(COC2CC3(C2)OC2CC[C@@H](c4cnccn4)N2C3=O)c1` (stereo partly drawn) [Example 18.62, [3-({[(5′S)-3′-oxo-5′-(pyrazin-2 yl)tetrahydro-3′H-spiro[cyclobutane-1,2′-pyrrolo[2,1-b][1,3]oxazol]-3-yl]oxy}methyl)phenyl]acetonitrile], the EC50 is 47 nM.

As for `COc1cc(COC2CC3(C2)OC2CC[C@@H](c4cnccn4)N2C3=O)cc2nccn12` (stereo partly drawn) [Example 18.83, (5′S)-3-[(5-methoxyimidazo[1,2-a]pyridin-7-yl)methoxy]-5′-(pyrazin-2-yl)tetrahydro-3′H-spiro[cyclobutane-1,2′-pyrrolo[2,1-b][1,3]oxazol]-3′-one], the EC50 came out at 140 nM.

For the molecule `O=C1N2C(CC[C@H]2c2cnccn2)OC12CC(OCc1ccccc1-n1cccn1)C2` (stereo partly drawn) [Example 18.102, (5′S)-5′-(pyrazin-2-yl)-3-{[2-(1H-pyrazol-1-yl)phenyl]methoxy}tetrahydro-3′H-spiro[cyclobutane-1,2′-pyrrolo[2,1-b][1,3]oxazol]-3′-one], the half-maximal effective concentration (EC50) is 736 nM.

Take `Cn1ccc([C@@H]2CC[C@H]3OC4(CC(Oc5cccnc5)C4)C(=O)N32)n1` (stereo partly drawn) [Example 19.8, (5′S,7a′R)-5′-(1-methyl-1H-pyrazol-3-yl)-3-[(pyridin-3-yl)oxy]tetrahydro-3′H-spiro[cyclobutane-1,2′-pyrrolo[2,1-b][1,3]oxazol]-3′-one]: the EC50 was determined as 474 nM.

Regarding `O=C1N2[C@@H](CC[C@H]2c2ccccc2)OC12CC(Oc1cccc3sncc13)C2` (stereo partly drawn) [Example 8.12, (5′S,7a′R)-3-[(1,2-benzothiazol-4-yl)oxy]-5′-phenyltetrahydro-3′H-spiro[cyclobutane-1,2′-pyrrolo[2,1-b][1,3]oxazol]-3′-one], the EC50 was determined as 20 nM.

On to `O=C1N2C(CC[C@H]2c2cnccn2)OC12CC(OCc1cnc3c(c1)CCCC3)C2` (stereo partly drawn) [Example 18.42, (5′S)-5′-(pyrazin-2-yl)-3-[(5,6,7,8-tetrahydroquinolin-3-yl)methoxy]tetrahydro-3′H-spiro[cyclobutane-1,2′-pyrrolo[2,1-b][1,3]oxazol]-3′-one], for which the EC50 was found to be 110 nM.

Turning to `O=C1N2C(CC[C@H]2c2cnccn2)OC12CC(OCc1cccc(CCn3cnnc3)c1)C2` (stereo partly drawn) [Example 18.9, (5′S)-5′-(pyrazin-2-yl)-3-({3-[2-(4H-1,2,4-triazol-4-yl)ethyl]phenyl}methoxy)tetrahydro-3′H-spiro[cyclobutane-1,2′-pyrrolo[2,1-b][1,3]oxazol]-3′-one], the EC50 was 100 nM.

For the molecule `N#Cc1ccc(COC2CC3(C2)O[C@@H]2CC[C@@H](c4cnccn4)N2C3=O)cc1` (single isomer, unassigned) [Example 22.2, 4-((((5′S,7a′R)-3′-oxo-5′-(pyrazin-2-yl)tetrahydro-3′H-spiro[cyclobutane-1,2′-pyrrolo[2,1-b]oxazol]-3-yl)oxy)methyl)benzonitrile], the EC50 amounted to 27 nM.

Take `N#Cc1cccc(F)c1COC1CC2(C1)OC1CC[C@@H](c3cnccn3)N1C2=O` (stereo partly drawn) [Example 18.100, 3-fluoro-2-({[(5′S)-3′-oxo-5′-(pyrazin-2-yl)tetrahydro-3′H-spiro[cyclobutane-1,2′-pyrrolo[2,1-b][1,3]oxazol]-3-yl]oxy}methyl)benzonitrile]: the EC50 amounted to 472 nM.

`CCOc1ncc(COC2CC3(C2)OC2CC[C@@H](c4cnccn4)N2C3=O)cn1` (stereo partly drawn) [Example 18.8, (5′S)-3-[(2-ethoxypyrimidin-5-yl)methoxy]-5′-(pyrazin-2-yl)tetrahydro-3′H-spiro[cyclobutane-1,2′-pyrrolo[2,1-b][1,3]oxazol]-3′-one]: the EC50 is 466 nM.

As to `O=C1N2C(CCC2c2ccc(F)cn2)OC12CC(Oc1ncnn3cccc13)C2` (centres unmarked) [Example 9.65, 5′-(5-fluoropyridin-2-yl)-3-[(pyrrolo[2,1-f][1,2,4]triazin-4-yl)oxy]tetrahydro-3′H-spiro[cyclobutane-1,2′-pyrrolo[2,1-b][1,3]oxazol]-3′-one], the EC50 turned out to be 13 nM.

On to `N#Cc1cc(O[C@H]2C[C@@]3(C2)O[C@@H]2CC[C@@H](c4ccccc4)N2C3=O)ncn1` [Example 9.17, 6-{[(1r,3R,5′S,7a′R)-3′-oxo-5′-phenyltetrahydro-3′H-spiro[cyclobutane-1,2′-pyrrolo[2,1-b][1,3]oxazol]-3-yl]oxy}pyrimidine-4-carbonitrile], for which the concentration for a half-maximal effect (EC50) was found to be 18 nM.

For the molecule `COc1ccc2cc(COC3CC4(C3)OC3CC[C@@H](c5cnccn5)N3C4=O)ncc2n1` (stereo partly drawn) [Example 18.32, (5′S)-3-[(2-methoxy-1,7-naphthyridin-6-yl)methoxy]-5′-(pyrazin-2-yl)tetrahydro-3′H-spiro[cyclobutane-1,2′-pyrrolo[2,1-b][1,3]oxazol]-3′-one], the EC50 amounted to 143 nM.

Consider `Cn1ccc([C@@H]2CC[C@H]3OC4(CC(Oc5cncc(Cl)c5)C4)C(=O)N32)n1` (stereo partly drawn) [Example 20.9, (5′S,7a′R)-3-[(5-chloropyridin-3-yl)oxy]-5′-(1-methyl-1H-pyrazol-3-yl)tetrahydro-3′H-spiro[cyclobutane-1,2′-pyrrolo[2,1-b][1,3]oxazol]-3′-one], for which the EC50 was determined as 83 nM.

Regarding `Cn1nccc1-c1cccc(OC2CC3(C2)O[C@@H]2CC[C@@H](c4cnccn4)N2C3=O)c1` (stereo partly drawn) [Example 19.13, (5′S,7a′R)-3-[3-(1-methyl-1H-pyrazol-5-yl)phenoxy]-5′-(pyrazin-2-yl)tetrahydro-3′H-spiro[cyclobutane-1,2′-pyrrolo[2,1-b][1,3]oxazol]-3′-one], the EC50 is 15 nM.

Regarding `O=C1N2[C@@H](CC[C@H]2c2ncccc2F)OC12CC(Oc1ncnn3cccc13)C2` (stereo partly drawn) [Example 9.62, (5′S,7a′R)-5′-(3-fluoropyridin-2-yl)-3-[(pyrrolo[2,1-f][1,2,4]triazin-4-yl)oxy]tetrahydro-3′H-spiro[cyclobutane-1,2′-pyrrolo[2,1-b][1,3]oxazol]-3′-one], the 50% effective concentration (EC50) was 10.2 nM.

As to `COc1ccc2cc(COC3CC4(C3)OC3CC[C@@H](c5cnccn5)N3C4=O)cc(C)c2n1` (stereo partly drawn) [Example 18.41, (5′S)-3-[(2-methoxy-8-methylquinolin-6-yl)methoxy]-5′-(pyrazin-2-yl)tetrahydro-3′H-spiro[cyclobutane-1,2′-pyrrolo[2,1-b][1,3]oxazol]-3′-one], the EC50 stood at 53 nM.

Turning to `O=C1N2C(CC[C@H]2c2cnccn2)OC12CC(OCc1ccc(Cn3ccnc3)cc1)C2` (stereo partly drawn) [Example 18.74, (5′S)-3-({4-[(1H-imidazol-1-yl)methyl]phenyl}methoxy)-5′-(pyrazin-2-yl)tetrahydro-3′H-spiro[cyclobutane-1,2′-pyrrolo[2,1-b][1,3]oxazol]-3′-one], the EC50 came to 92 nM.

Consider `O=C1N2[C@@H](CC[C@H]2c2ccccc2)OC12CC(Oc1cccc(C(F)(F)F)c1)C2` (stereo partly drawn) [Example 8.15, (5′S,7a′R)-5′-phenyl-3-[3-(trifluoromethyl)phenoxy]tetrahydro-3′H-spiro[cyclobutane-1,2′-pyrrolo[2,1-b][1,3]oxazol]-3′-one], for which the EC50 was 37 nM.

Turning to `O=C1N2[C@@H](CC[C@H]2c2cc(F)cc(F)c2)OC12CC(Oc1ncccc1F)C2` (stereo partly drawn) [Example 9.39, (5′S,7a′R)-5′-(3,5-difluorophenyl)-3-[(3-fluoropyridin-2-yl)oxy]tetrahydro-3′H-spiro[cyclobutane-1,2′-pyrrolo[2,1-b][1,3]oxazol]-3′-one], the EC50 was 47 nM.

Take `O=C1N2[C@@H](CC[C@H]2c2cnccn2)OC12CC(OCc1ccc(-c3nnco3)cc1)C2` (stereo partly drawn) [Example 18.58, (5′S, 7a′R)-3-{[4-(1,3,4-oxadiazol-2-yl)phenyl]methoxy}-5′-(pyrazin-2-yl)tetrahydro-3′H-spiro[cyclobutane-1,2′-pyrrolo[2,1-b][1,3]oxazol]-3′-one]: the EC50 is 40 nM.
